In PubChem BioAssay (NCI):
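96-well plates; 48 h exposure; 5 concentrations. Endpoints by linear interpolation between flanking doses. Not reached: highest tested concentration assigned. TGI: concentration producing complete growth inhibition.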

Legend:
Test in all cases: NCI anticancer screen, dose series, 48 h
OVCAR-3 ovarian = tested on: OVCAR-3 ovarian
DMS 273 small cell lung = tested on: DMS 273 small cell lung
LOX IMVI melanoma = tested on: LOX IMVI melanoma
EKVX NSCLC = tested on: EKVX NSCLC
HCT-116 colon = tested on: HCT-116 colon
OVCAR-8 ovarian = tested on: OVCAR-8 ovarian
MALME-3M melanoma = tested on: MALME-3M melanoma
NCI-H23 lung = tested on: NCI-H23 lung
HOP-62 NSCLC = tested on: HOP-62 NSCLC
A549 NSCLC = tested on: A549 NSCLC
MOLT-4 leukemia = tested on: MOLT-4 leukemia
K-562 leukemia = tested on: K-562 leukemia
SK-MEL-2 melanoma = tested on: SK-MEL-2 melanoma
SN12C renal = tested on: SN12C renal
DMS 114 small cell lung = tested on: DMS 114 small cell lung
NCI-H226 lung = tested on: NCI-H226 lung
HOP-92 NSCLC = tested on: HOP-92 NSCLC
SK-MEL-28 melanoma = tested on: SK-MEL-28 melanoma
TK-10 renal = tested on: TK-10 renal
RXF-631 renal = tested on: RXF-631 renal
SF-295 CNS = tested on: SF-295 CNS
CAKI-1 renal = tested on: CAKI-1 renal
SNB-19 CNS = tested on: SNB-19 CNS
IGROV1 ovarian = tested on: IGROV1 ovarian
RPMI-8226 leukemia = tested on: RPMI-8226 leukemia
U251 CNS = tested on: U251 CNS
XF 498 CNS = tested on: XF 498 CNS
DLD-1 colon = tested on: DLD-1 colon
RXF 393 renal = tested on: RXF 393 renal
KM12 colon = tested on: KM12 colon
LXFL 529 NSCLC = tested on: LXFL 529 NSCLC
OVCAR-4 ovarian = tested on: OVCAR-4 ovarian
SF-268 CNS = tested on: SF-268 CNS
SW-620 colon = tested on: SW-620 colon
UO-31 renal = tested on: UO-31 renal
HCC-2998 colon = tested on: HCC-2998 colon
SF-539 CNS = tested on: SF-539 CNS
UACC-62 melanoma = tested on: UACC-62 melanoma
SK-OV-3 ovarian = tested on: SK-OV-3 ovarian
CCRF-CEM leukemia = tested on: CCRF-CEM leukemia
SK-MEL-5 melanoma = tested on: SK-MEL-5 melanoma
HCT-15 colon = tested on: HCT-15 colon
M19-MEL melanoma = tested on: M19-MEL melanoma
OVCAR-5 ovarian = tested on: OVCAR-5 ovarian
SR leukemia = tested on: SR leukemia
ACHN renal = tested on: ACHN renal
SNB-78 CNS = tested on: SNB-78 CNS
NCI-H522 lung = tested on: NCI-H522 lung
KM20L2 colon = tested on: KM20L2 colon
COLO 205 colon = tested on: COLO 205 colon
HL-60(TB) leukemia = tested on: HL-60(TB) leukemia
UACC-257 melanoma = tested on: UACC-257 melanoma
HOP-18 NSCLC = tested on: HOP-18 NSCLC
NCI-H460 lung = tested on: NCI-H460 lung
A498 renal = tested on: A498 renal
M14 melanoma = tested on: M14 melanoma
HT29 colon = tested on: HT29 colon
SNB-75 CNS = tested on: SNB-75 CNS
786-0 renal = tested on: 786-0 renal

## CCOc1ccc(N=Nc2ccc3oc(=O)c(/C(C)=N\NC(=O)CC(=O)Nc4ccc(Cl)cc4)cc3c2)cc1
OVCAR-3 ovarian
  TGI: 30.4 µM
DMS 273 small cell lung
  TGI: 37.3 µM
LOX IMVI melanoma
  TGI: 26.5 µM
EKVX NSCLC
  TGI: 34.7 µM
HCT-116 colon
  TGI: 31.5 µM
OVCAR-8 ovarian
  TGI: 34.4 µM
MALME-3M melanoma
  TGI: 30.3 µM
NCI-H23 lung
  TGI: 41.9 µM
HOP-62 NSCLC
  TGI: 36.4 µM
A549 NSCLC
  TGI: 43.3 µM
MOLT-4 leukemia
  TGI: 28.8 µM
K-562 leukemia
  TGI: 70.6 µM
SK-MEL-2 melanoma
  TGI: 9.32 µM
SN12C renal
  TGI: 81.1 µM
DMS 114 small cell lung
  TGI: 42 µM
NCI-H226 lung
  TGI: > 100 µM
HOP-92 NSCLC
  TGI: 54.9 µM
SK-MEL-28 melanoma
  TGI: > 100 µM
TK-10 renal
  TGI: 35.5 µM
RXF-631 renal
  TGI: 45.5 µM
SF-295 CNS
  TGI: 34.3 µM
CAKI-1 renal
  TGI: > 100 µM
SNB-19 CNS
  TGI: > 100 µM
IGROV1 ovarian
  TGI: 45.4 µM
RPMI-8226 leukemia
  TGI: 64.7 µM
U251 CNS
  TGI: 34 µM
XF 498 CNS
  TGI: 4.31 µM
DLD-1 colon
  TGI: 32 µM
RXF 393 renal
  TGI: 29.6 µM
KM12 colon
  TGI: 60.7 µM
LXFL 529 NSCLC
  TGI: 27 µM
OVCAR-4 ovarian
  TGI: 37.9 µM
SF-268 CNS
  TGI: 41.5 µM
SW-620 colon
  TGI: 38.8 µM
UO-31 renal
  TGI: 36.9 µM
HCC-2998 colon
  TGI: 35.2 µM
SF-539 CNS
  TGI: 33.5 µM
UACC-62 melanoma
  TGI: 28.9 µM
SK-OV-3 ovarian
  TGI: 41.8 µM
CCRF-CEM leukemia
  TGI: 11.4 µM
SK-MEL-5 melanoma
  TGI: 38.7 µM
HCT-15 colon
  TGI: 26.4 µM
M19-MEL melanoma
  TGI: > 100 µM
OVCAR-5 ovarian
  TGI: > 100 µM
SR leukemia
  TGI: 25 µM
ACHN renal
  TGI: 97.6 µM
SNB-78 CNS
  TGI: > 100 µM
NCI-H522 lung
  TGI: 50.1 µM
KM20L2 colon
  TGI: > 100 µM
COLO 205 colon
  TGI: > 100 µM

## Cc1ccc(-c2nc3c(C(=O)NCCN(C)C)cccc3[nH]2)cc1
OVCAR-3 ovarian
  TGI: 86.7 µM
DMS 273 small cell lung
  TGI: 27.1 µM
LOX IMVI melanoma
  TGI: 24.6 µM
EKVX NSCLC
  TGI: 69.5 µM
HL-60(TB) leukemia
  TGI: 34.2 µM
HCT-116 colon
  TGI: 20.1 µM
OVCAR-8 ovarian
  TGI: 78.3 µM
NCI-H23 lung
  TGI: 30.3 µM
UACC-257 melanoma
  TGI: 27.5 µM
HOP-62 NSCLC
  TGI: 36.1 µM
A549 NSCLC
  TGI: 34.5 µM
MOLT-4 leukemia
  TGI: 18.5 µM
K-562 leukemia
  TGI: 50.5 µM
SK-MEL-2 melanoma
  TGI: 32.8 µM
HOP-18 NSCLC
  TGI: 51.5 µM
SN12C renal
  TGI: 63.5 µM
DMS 114 small cell lung
  TGI: 26.6 µM
NCI-H226 lung
  TGI: 31.7 µM
HOP-92 NSCLC
  TGI: 32.4 µM
SK-MEL-28 melanoma
  TGI: 32.4 µM
TK-10 renal
  TGI: 48.9 µM
NCI-H460 lung
  TGI: 21.1 µM
RXF-631 renal
  TGI: 31 µM
A498 renal
  TGI: 27.8 µM
M14 melanoma
  TGI: 29.2 µM
HT29 colon
  TGI: 80.1 µM
SF-295 CNS
  TGI: 53.7 µM
CAKI-1 renal
  TGI: > 100 µM
SNB-75 CNS
  TGI: 52.4 µM
SNB-19 CNS
  TGI: > 100 µM
IGROV1 ovarian
  TGI: 41.9 µM
U251 CNS
  TGI: 61.1 µM
DLD-1 colon
  TGI: 73.2 µM
786-0 renal
  TGI: > 100 µM
RXF 393 renal
  TGI: 24.1 µM
KM12 colon
  TGI: > 100 µM
OVCAR-4 ovarian
  TGI: 85.3 µM
SF-268 CNS
  TGI: 48.9 µM
SW-620 colon
  TGI: 28.6 µM
UO-31 renal
  TGI: 22.9 µM
HCC-2998 colon
  TGI: 29.4 µM
SF-539 CNS
  TGI: 23 µM
UACC-62 melanoma
  TGI: 32.5 µM
SK-OV-3 ovarian
  TGI: 72.8 µM
CCRF-CEM leukemia
  TGI: 47.4 µM
SK-MEL-5 melanoma
  TGI: 26.6 µM
HCT-15 colon
  TGI: 58.2 µM
M19-MEL melanoma
  TGI: 29.7 µM
OVCAR-5 ovarian
  TGI: 45.2 µM
ACHN renal
  TGI: 28.9 µM
SNB-78 CNS
  TGI: 83.3 µM
COLO 205 colon
  TGI: 20.4 µM
